In brackets after ≈: the same amount, converted by molar mass.
Assays:
[1] = test system: S. aureus DSM 20231; assay: Bliss interaction score (quartile over a dose matrix) (fitness difference); higher = more antagonism (negative = synergy)
Method in brief: (§1)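 Values were capped at 1 after dividing OD595 at stationary-phase entry by the plate's robust no-drug mean. This ratio is fitness, and single-drug fitness was inferred from the combination data. The Bliss score is observed minus product-expected fitness, given as quartiles over technical, biological and donor/recipient replicates.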

[2] = test system: B. subtilis 168; assay: as above
Method in brief: as §1

[3] = test system: S. pneumoniae D39V; assay: as above
Method in brief: as §1

[4] = test system: S. aureus Newman; assay: as above
Method in brief: as §1

[5] = test system: S. aureus DSM 20231; assay: fitness (endpoint OD595 vs no drug) (fraction); higher = more growth
Method in brief: (§2)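 Bacterial growth was followed in 384-well plates seeded at OD595 0.01, with 30 µl per well, or 55 µl for S. pneumoniae, in TSB, LB Lennox or CY at 37 °C. OD595 was read every 30 min for 14 h, and each reading had the first reading subtracted as background. Fitness is the background-corrected optical density at entry into stationary phase divided by the robust mean of the no-drug control wells. This ratio is capped at 1.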

[6] = test system: B. subtilis 168; assay: as above
Method in brief: as §2

[7] = test system: S. pneumoniae D39V; assay: as above
Method in brief: as §2

[8] = test system: S. aureus Newman; assay: as above
Method in brief: as §2

[9] = test system: S. aureus DSM 20231
[10] = test system: B. subtilis 168
[11] = test system: S. pneumoniae D39V
[12] = test system: S. aureus Newman
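For Bliss interaction score (quartile over a dose matrix) in this document: first quartile when negative (synergy) and third quartile when positive (antagonism).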

COc1c(N2C[C@@H]3CCCN[C@@H]3C2)c(F)cc2c(=O)c(C(=O)O)cn(C3CC3)c12 [Moxifloxacin] + Cc1onc(-c2ccccc2)c1C(=O)N[C@@H]1C(=O)N2[C@@H]1SC(C)(C)[C@@H]2C(=O)O [Oxacillin]
Conditions | Bliss interaction score
[1] | 0.0441
[2] | 0.0214
[3] | 0.0911
[4] | -0.0642

Conditions | fitness
[5], first compound 0.0075 µg/mL, partner 0.0156 µg/mL | 0.665
[5], first compound 0.0075 µg/mL, partner 0.0312 µg/mL | 0.623
[5], first compound 0.0075 µg/mL, partner 0.0625 µg/mL | 0.483
[5], first compound 0.015 µg/mL, partner 0.0156 µg/mL | 0.621
[5], first compound 0.015 µg/mL, partner 0.0312 µg/mL | 0.576
[5], first compound 0.015 µg/mL, partner 0.0625 µg/mL | 0.475
[5], first compound 0.03 µg/mL, partner 0.0156 µg/mL | 0.561
[5], first compound 0.03 µg/mL, partner 0.0312 µg/mL | 0.527
[5], first compound 0.03 µg/mL, partner 0.0625 µg/mL | 0.417
[6], first compound 0.0312 µg/mL, partner 0.0078 µg/mL | 0.064
[6], first compound 0.0312 µg/mL, partner 0.0155 µg/mL | 0.0573
[6], first compound 0.0312 µg/mL, partner 0.031 µg/mL | 0.0475
[6], first compound 0.0625 µg/mL, partner 0.0078 µg/mL | 0.0466
[6], first compound 0.0625 µg/mL, partner 0.0155 µg/mL | 0.037
[6], first compound 0.0625 µg/mL, partner 0.031 µg/mL | 0.0491
[6], first compound 0.125 µg/mL, partner 0.0078 µg/mL | 0.0548
[6], first compound 0.125 µg/mL, partner 0.0155 µg/mL | 0.0482
[6], first compound 0.125 µg/mL, partner 0.031 µg/mL | 0.0479
[6], first compound 2 µg/mL, partner 0.002 µg/mL | 0.0356
[6], first compound 2 µg/mL, partner 0.004 µg/mL | 0.0464
[6], first compound 2 µg/mL, partner 0.008 µg/mL | 0.0465
[6], first compound 4 µg/mL, partner 0.002 µg/mL | 0.0347
[6], first compound 4 µg/mL, partner 0.004 µg/mL | 0.0433
[6], first compound 4 µg/mL, partner 0.008 µg/mL | 0.0406
[6], first compound 8 µg/mL, partner 0.002 µg/mL | 0.0147
[6], first compound 8 µg/mL, partner 0.004 µg/mL | 0.021
[6], first compound 8 µg/mL, partner 0.008 µg/mL | 0.0219
[7], first compound 0.0037 µg/mL, partner 0.01 µg/mL | 0.885
[7], first compound 0.0037 µg/mL, partner 0.02 µg/mL | 0.769
[7], first compound 0.0037 µg/mL, partner 0.04 µg/mL | 0.191
[7], first compound 0.005 µg/mL, partner 0.01 µg/mL | 0.991
[7], first compound 0.005 µg/mL, partner 0.02 µg/mL | 1
[7], first compound 0.0075 µg/mL, partner 0.01 µg/mL | 0.9
[7], first compound 0.0075 µg/mL, partner 0.02 µg/mL | 0.784
[7], first compound 0.0075 µg/mL, partner 0.04 µg/mL | 0.198
[7], first compound 0.01 µg/mL, partner 0.01 µg/mL | 0.993
[7], first compound 0.01 µg/mL, partner 0.02 µg/mL | 0.983
[7], first compound 0.015 µg/mL, partner 0.01 µg/mL | 0.84
[7], first compound 0.015 µg/mL, partner 0.02 µg/mL | 0.814
[7], first compound 0.015 µg/mL, partner 0.04 µg/mL | 0.276
[7], first compound 0.02 µg/mL, partner 0.01 µg/mL | 0.993
[7], first compound 0.02 µg/mL, partner 0.02 µg/mL | 0.978
[8], first compound 0.0075 µg/mL, partner 0.0156 µg/mL | 0.676
[8], first compound 0.0075 µg/mL, partner 0.0312 µg/mL | 0.633
[8], first compound 0.0075 µg/mL, partner 0.0625 µg/mL | 0.515
[8], first compound 0.015 µg/mL, partner 0.0156 µg/mL | 0.575
[8], first compound 0.015 µg/mL, partner 0.0312 µg/mL | 0.487
[8], first compound 0.015 µg/mL, partner 0.0625 µg/mL | 0.417
[8], first compound 0.03 µg/mL, partner 0.0156 µg/mL | 0.116
[8], first compound 0.03 µg/mL, partner 0.0312 µg/mL | 0.0437
[8], first compound 0.03 µg/mL, partner 0.0625 µg/mL | 0.0665

fitness, one replicate
Conditions | partner 0.0156 µg/mL | partner 0.0312 µg/mL | partner 0.0625 µg/mL | partner 0.075 µg/mL | partner 0.15 µg/mL | partner 0.3 µg/mL
[5], first compound 0.06 µg/mL | 0.628 | 0.559 | 0.524 | – | – | –
[5], first compound 0.12 µg/mL | 0.441 | 0.379 | 0.37 | – | – | –
[6], first compound 0.0312 µg/mL | – | – | – | 0.0346 | 0.0314 | 0.0247
[6], first compound 0.0625 µg/mL | – | – | – | 0.0324 | 0.0252 | 0.0441
[6], first compound 0.125 µg/mL | – | – | – | 0.0269 | 0.0127 | 0.018

O=C1CN(/N=C/c2ccc([N+](=O)[O-])o2)C(=O)N1 [Nitrofurantoin]
[7]
Conditions | fitness
2 µg/mL | 0.941
4 µg/mL | 0.888
8 µg/mL | 0.724

Conditions | MIC [µg/mL]
[9] | 8.89 (≈ 37.3 µM)
[10] | 16 (≈ 67.2 µM)
[11] | 16 (≈ 67.2 µM)
[12] | 10 (≈ 42 µM)

C/C(=C\C(=O)OCCCCCCCCC(=O)O)C[C@@H]1OC[C@H](C[C@@H]2O[C@H]2[C@@H](C)[C@H](C)O)[C@@H](O)[C@H]1O [Pseudomonic acid]
[7]
Conditions | fitness
0.03 µg/mL | 0.971
0.06 µg/mL | 0.822
0.12 µg/mL | 0.443

Conditions | MIC [µg/mL]
[11] | 0.25 (≈ 0.499 µM)

CCCCCCCCCC(=O)N[C@H]1[C@H](Oc2c3cc4cc2Oc2ccc(cc2Cl)[C@@H](O[C@@H]2O[C@H](CO)[C@@H](O)[C@H](O)[C@H]2NC(C)=O)[C@@H]2NC(=O)[C@H](NC(=O)[C@@H]4NC(=O)[C@H]4NC(=O)[C@@H](Cc5ccc(c(Cl)c5)O3)NC(=O)[C@H](N)c3ccc(O)c(c3)Oc3cc(O)cc4c3)c3ccc(O)c(c3)-c3c(O[C@H]4O[C@H](CO)[C@@H](O)[C@H](O)[C@@H]4O)cc(O)cc3[C@@H](C(=O)O)NC2=O)O[C@H](CO)[C@@H](O)[C@@H]1O [Teicoplanin]
fitness, main component drawn
Conditions | 0.1562 µg/mL | 0.3125 µg/mL | 0.625 µg/mL | 1.25 µg/mL
[5] | ≥ 1 | ≥ 1 | ≥ 1 | ≥ 1
[8] | ≥ 1 | ≥ 1 | ≥ 1 | –

main component drawn
Conditions | MIC [µg/mL]
[9] | 0.7 (≈ 0.372 µM)
[11] | 0.062 (≈ 0.033 µM)
[12] | 0.7 (≈ 0.372 µM)

COc1cc(Cc2cnc(N)nc2N)cc(OC)c1OC [Trimethoprim]
fitness
Conditions | 0.125 µg/mL | 0.25 µg/mL | 0.5 µg/mL | 1 µg/mL | 2 µg/mL
[5] | 0.8 | 0.662 | 0.143 | – | –
[6] | 0.623 | 0.478 | 0.45 | 0.334 | 0.31
[7] | – | – | 0.924 | 0.658 | 0.306
[8] | 0.857 | 0.725 | 0.248 | – | –

Conditions | MIC [µg/mL]
[10] | 2.5 (≈ 8.61 µM)
[11] | 4 (≈ 13.8 µM)

CN[C@H](CC(C)C)C(=O)N[C@H]1C(=O)N[C@@H](CC(N)=O)C(=O)N[C@H]2C(=O)N[C@H]3C(=O)N[C@H](C(=O)N[C@H](C(=O)O)c4cc(O)cc(O)c4-c4cc3ccc4O)[C@H](O)c3ccc(c(Cl)c3)Oc3cc2cc(c3O[C@@H]2O[C@H](CO)[C@@H](O)[C@H](O)[C@H]2O[C@H]2C[C@](C)(N)[C@H](O)[C@H](C)O2)Oc2ccc(cc2Cl)[C@H]1O [Vancomycin]
Conditions | fitness
[5], 0.1875 µg/mL | ≥ 1
[5], 0.375 µg/mL | ≥ 1
[5], 0.5 µg/mL | 0.981
[5], 0.75 µg/mL | ≥ 1
[5], 1 µg/mL | 0.977
[5], 2 µg/mL | 0.992
[6], 0.0468 µg/mL | 0.997
[6], 0.0935 µg/mL | 0.924
[6], 0.0938 µg/mL | 0.853
[6], 0.187 µg/mL | 0.0481
[6], 0.1875 µg/mL | 0.169
[6], 0.375 µg/mL | 0.0404
[7], 0.125 µg/mL | 0.97
[7], 0.25 µg/mL | 0.489
[7], 0.5 µg/mL | 0.159
[8], 0.1875 µg/mL | ≥ 1
[8], 0.375 µg/mL | 0.99
[8], 0.75 µg/mL | 0.999

Conditions | MIC [µg/mL]
[10] | 0.375 (≈ 0.259 µM)
[11] | 0.3 (≈ 0.207 µM)
